System: purified rat motoneurons
Conditions: BDNF 1 ng/ml
Protocol: The effect of the combination has been studied on the cellular death of purified rat motoneurons which is induced by sera from patients suffering from amyotrophic lateral sclerosis.
Purified motoneurons prepared from the spinal cord of rat embryos at 14 days of gestation are cultured in the presence of optimum concentrations of recombinant “brain-derived neurotrophic factor” (BDNF), one of the principal neurotrophic factors for the survival of the motoneurons. […] After a further 2 hours, dilutions of dialyzed sera from patients suffering from ALS are added. On the next day, the number of surviving motoneurons is evaluated by direct counting under a phase contrast microscope.
The stock solution of gabapentin is prepared directly by dissolving 17.1 mg of gabapentin in 1 ml of double distilled water.
Rat embryos at 14 days of gestation (Charles River, France) are recovered after sacrificing the mother, under CO2 anesthesia, by pulling the neck. These embryos are placed in phosphate buffer (“phosphate-buffered saline”, PBS) free of calcium and magnesium (Life Technologies).
Unless otherwise stated, the composition of the media used is identical to that indicated in these references. Spinal cords from rat embryos at 14 days of gestation are dissected in sterile PBS and the ventral halves of each cord containing the motoneurons are subdissected. […]

SMILES: NCC1(CC(=O)O)CCCCC1 [Gabapentin]
- Number of motoneurons, Mean (± SEM) (mean of 8 measurements, 4 wells, ALS serum 0.1%, Gabapentin 10^−5 M alone): 5.0
- survival of the motoneurons (medium treated with gabapentin alone, ALS serum): 8%
